In patent publication US9387204B2, “Fused bicyclic imidazoles” (BAYER INTELLECTUAL PROPERTY GmbH, priority 2007, dated 2016) one finds IC50 data, which are given here for 21 compounds.

The subject of this data set is A549 cells. In words: Cellular proliferation/cytotoxicity assay (Alamar Blue), A549 cells. The conditions noted are these: read-out: Anti-proliferative/Cytotoxic activity (A549 cells); A549 cells, 72 h, Alamar Blue (Resazurin).
Method: The anti-proliferative activity of the compounds as described herein, is evaluated using the OvCAR3, HCT116 and A549 cell lines and the Alamar Blue (Resazurin) cell viability assay (O'Brien et al. Eur J Biochem 267, 5421-5426, 2000). Resazurin is reduced to the fluorescent resorufin by cellular dehydrogenase activity, correlating with viable, proliferating cells. Test compounds are dissolved as 10 mM solutions in DMSO and subsequently diluted. Cells like HCT116 or A549 cells were seeded into 96 well flat bottom plates at a density of 10000 cells/well (OvCAR3 cells), 1000 cells/well (HCT116 cells) or 2000 cells/well (A549 cells) in a volume of 200 μl/well. 24 hours after seeding, 1 μl each of the compound dilutions are added into each well of the 96 well plates. Each compound dilution is tested as at least as duplicates. Wells containing untreated control cells were filled with 200 μl DMEM (Dulbecco's Modified Eagle Medium) containing 0.5 vol % v:v DMSO. The cells are then incubated with the substances for 72 h at 37° C. in a humidified atmosphere containing 5 vol % CO2. To determine the viability of the cells, 20 μl of a Resazurin solution (90 mg/l) are added. After 4 h incubation at 37° C., the fluorescence is measured by extinction at ? =544 nm and an emission of ? =590 nm (Wallac Victor2; Perkin Elmer, USA). For the calculation of the cell viability, the emission value from untreated cells is set as 100% viability and the fluorescence intensity of treated cells are set in relation to the values of untreated cells. Viabilities are expressed as % values. The corresponding IC50 values of the compounds for cytotoxic activity are determined from the concentration-effect curves by means of non-linear regression. The analysis of the data is performed using a biostatistical program (Graph Pad Prism, USA).
Consider `c1ccc(-c2c(-c3ccc(CN4CCC(c5n[nH]c(-c6ncccn6)n5)CC4)cc3)nc3ncccn23)cc1` [Example 79, ′3-phenyl-2-(4-{[4-(5-pyrimidin-2-yl-1H-1,2,4-triazol-3-yl)piperidin-1-yl]methyl}phenyl)imidazo[1,2-a]pyrimidine], for which the IC50 was over 10 µM.
Take `c1ccc(-c2c(-c3ccc(CN4CCC(c5nnc(-c6ncccn6)[nH]5)CC4)cc3)nc3ccccn23)cc1` [Example 80, ′3-phenyl-2-(4-{[4-(5-pyrimidin-2-yl-4H-1,2,4-triazol-3-yl)piperidin-1-yl]methyl}phenyl)imidazo[1,2-a]pyridine]: the IC50 was over 10 µM.
Next, `c1ccc(-c2c(-c3ccc(CN4CCC(c5nnc(-c6ncccn6)[nH]5)CC4)cc3)nc3sccn23)cc1` [Example 81, ′5-phenyl-6-(4-{[4-(5-pyrimidin-2-yl-4H-1,2,4-triazol-3-yl)piperidin-1-yl]methyl}phenyl)imidazo[2,1-b][1,3]thiazole]: over 10 µM; `c1ccc(-c2c(-c3ccc(CN4CCC(c5nnc(-c6ncccn6)[nH]5)CC4)cc3)nc3scnn23)cc1` [Example 82, ′5-phenyl-6-(4-{[4-(5-pyrimidin-2-yl-4H-1,2,4-triazol-3-yl)piperidin-1-yl]methyl}phenyl)imidazo[2,1-b][1,3,4]thiadiazole]: under 10 µM.
With `Cc1ccc2nc(-c3ccc(CN4CCC(c5nnc(-c6ncccn6)[nH]5)CC4)cc3)c(-c3ccccc3)n2n1` [Example 83, ′6-methyl-3-phenyl-2-(4-{[4-(5-pyrimidin-2-yl-4H-1,2,4-triazol-3-yl)piperidin-1-yl]methyl}phenyl)imidazo[1,2-b]pyridazine], the IC50 was over 10 µM.
With `c1ccc(-c2c(-c3ccc(CN4CCC(c5n[nH]c(-c6nccs6)n5)CC4)cc3)nc3ncccn23)cc1` [Example 84, ′3-phenyl-2-[4-({4-[5-(1,3-thiazol-2-yl)-1H-1,2,4-triazol-3-yl]piperidin-1-yl}methyl)phenyl]imidazo[1,2-a]pyrimidine], the IC50 was over 10 µM.
Turning to `c1ccc(-c2c(-c3ccc(CN4CCC(c5nnc(-c6nccs6)[nH]5)CC4)cc3)nc3ccccn23)cc1` [Example 85, ′3-phenyl-2-[4-({4-[5-(1,3-thiazol-2-yl)-4H-1,2,4-triazol-3-yl]piperidin-1-yl}methyl)phenyl]imidazo[1,2-a]pyridine], the IC50 was over 10 µM.
Next, `N#Cc1cccn2c(-c3ccccc3)c(-c3ccc(CN4CCC(c5nnc(-c6nccs6)[nH]5)CC4)cc3)nc12` [Example 86, ′3-phenyl-2-[4-({4-[5-(1,3-thiazol-2-yl)-4H-1,2,4-triazol-3-yl]piperidin-1-yl}methyl)phenyl]imidazo[1,2-a]pyridine-8-carbonitrile]: over 10 µM; `c1ccc(-c2c(-c3ccc(CN4CCC(c5nnc(-c6nccs6)[nH]5)CC4)cc3)nc3sccn23)cc1` [Example 87, ′5-phenyl-6-[4-({4-[5-(1,3-thiazol-2-yl)-4H-1,2,4-triazol-3-yl]piperidin-1-yl}methyl)phenyl]imidazo[2,1-b][1,3]thiazole]: under 10 µM; `c1ccc(-c2c(-c3ccc(CN4CCC(c5n[nH]c(-c6nccs6)n5)CC4)cc3)nc3scnn23)cc1` [Example 88, ′5-phenyl-6-[4-({4-[5-(1,3-thiazol-2-yl)-1H-1,2,4-triazol-3-yl]piperidin-1-yl}methyl)phenyl]imidazo[2,1-b][1,3,4]thiadiazole]: under 10 µM.
Take `N#Cc1ccn2c(-c3ccccc3)c(-c3ccc(CN4CCC(c5nnc(-c6nccs6)[nH]5)CC4)cc3)nc2c1` [Example 89, ′3-phenyl-2-[4-({4-[5-(1,3-thiazol-2-yl)-4H-1,2,4-triazol-3-yl]piperidin-1-yl}methyl)phenyl]imidazo[1,2-a]pyridine-7-carbonitrile]: the IC50 was under 10 µM.
Turning to `N#Cc1cccn2c(-c3ccccc3)c(-c3ccc(CN4CCC(c5nnc(-c6ccco6)[nH]5)CC4)cc3)nc12` [Example 90, ′2-[4-({4-[5-(2-furyl)-4H-1,2,4-triazol-3-yl]piperidin-1-yl}methyl)phenyl]-3-phenylimidazo[1,2-a]pyridine-8-carbonitrile], the IC50 was over 10 µM.
On to `c1ccc(-c2c(-c3ccc(CN4CCC(c5nnc(-c6ccco6)[nH]5)CC4)cc3)nc3ccccn23)cc1` [Example 91, ′2-[4-({4-[5-(2-furyl)-4H-1,2,4-triazol-3-yl]piperidin-1-yl}methyl)phenyl]-3-phenylimidazo[1,2-a]pyridine], for which the IC50 is under 10 µM.
With `Cc1ccc2nc(-c3ccc(CN4CCC(c5nnc(-c6ccco6)[nH]5)CC4)cc3)c(-c3ccccc3)n2n1` [Example 92, ′2-[4-({4-[5-(2-furyl)-4H-1,2,4-triazol-3-yl]piperidin-1-yl}methyl)phenyl]-6-methyl-3-phenylimidazo[1,2-b]pyridazine], the IC50 is under 10 µM.
With `c1ccc(-c2c(-c3ccc(CN4CCC(c5nnc(-c6ccco6)[nH]5)CC4)cc3)nc3scnn23)cc1` [Example 94, ′6-[4-({4-[5-(2-furyl)-4H-1,2,4-triazol-3-yl]piperidin-1-yl}methyl)phenyl]-5-phenylimidazo[2,1-b][1,3,4]thiadiazole], the IC50 was under 10 µM.
`c1ccc(-c2c(-c3ccc(CN4CCC(c5nnc(-c6ccco6)[nH]5)CC4)cc3)nc3ncccn23)cc1` [Example 95, ′2-[4-({4-[5-(2-furyl)-4H-1,2,4-triazol-3-yl]piperidin-1-yl}methyl)phenyl]-3-phenylimidazo[1,2-a]pyrimidine]: the IC50 is over 10 µM.
To `N#Cc1ccn2c(-c3ccccc3)c(-c3ccc(CN4CCC(c5nnc(-c6ccco6)[nH]5)CC4)cc3)nc2c1` [Example 96, ′2-[4-({4-[5-(2-furyl)-4H-1,2,4-triazol-3-yl]piperidin-1-yl}methyl)phenyl]-3-phenylimidazo[1,2-a]pyridine-7-carbonitrile] belongs under 10 µM.
For `c1ccc(-c2c(-c3ccc(CN4CCC(c5nnc(-c6cccs6)[nH]5)CC4)cc3)nc3ccccn23)cc1` [Example 97, ′3-phenyl-2-[4-({4-[5-(2-thienyl)-4H-1,2,4-triazol-3-yl]piperidin-1-yl}methyl)phenyl]imidazo[1,2-a]pyridine], the IC50 was under 10 µM.
To `Cc1ccc2nc(-c3ccc(CN4CCC(c5nnc(-c6cccs6)[nH]5)CC4)cc3)c(-c3ccccc3)n2n1` [Example 99, ′6-methyl-3-phenyl-2-[4-({4-[5-(2-thienyl)-4H-1,2,4-triazol-3-yl]piperidin-1-yl}methyl)phenyl]imidazo[1,2-b]pyridazine] belongs under 10 µM; to `c1ccc(-c2c(-c3ccc(CN4CCC(c5nnc(-c6cccs6)[nH]5)CC4)cc3)nc3sccn23)cc1` [Example 100, ′5-phenyl-6-[4-({4-[5-(2-thienyl)-4H-1,2,4-triazol-3-yl]piperidin-1-yl}methyl)phenyl]imidazo[2,1-b][1,3]thiazole], under 10 µM; to `c1ccc(-c2c(-c3ccc(CN4CCC(c5nnc(-c6cccs6)[nH]5)CC4)cc3)nc3scnn23)cc1` [Example 101, ′5-phenyl-6-[4-({4-[5-(2-thienyl)-4H-1,2,4-triazol-3-yl]piperidin-1-yl}methyl)phenyl]imidazo[2,1-b][1,3,4]thiadiazole], under 10 µM.
